Experimental data published in ChEMBL document CHEMBL1949508, “The selective cytotoxic activity in breast cancer cells by an anthranilic alcohol-derived acyclic 5-fluorouracil O,N-acetal is mediated by endoplasmic reticulum stress-induced apoptosis” (Eur J Med Chem, 2012).
Calls of active or inactive are those of the source. The calls are words filed in the database; no cut-off is given here.

What was measured:
MCF7 [1] = assay: Downregulation of FAIM gene in human MCF7 cells at 1.09 uM after 48 hrs by microarray hybridization relative to control; assay type: functional
MCF7 [2] = assay: Downregulation of CCL2 gene in human MCF7 cells at 1.09 uM after 48 hrs by microarray hybridization relative to control; assay type: functional
MCF-10A [3] = assay: Upregulation of BBC3 gene in human MCF10A cells at 37.67 uM after 48 hrs by microarray hybridization relative to control; assay type: functional, cell-based
MCF-10A [4] = assay: Upregulation of MTL5 gene in human MCF10A cells at 37.67 uM after 48 hrs by microarray hybridization relative to control; assay type: functional, cell-based
MCF-10A [5] = assay: Upregulation of BMF gene in human MCF10A cells at 37.67 uM after 48 hrs by microarray hybridization relative to control; assay type: functional, cell-based
MCF-10A [6] = assay: Upregulation of BNIP3L gene in human MCF10A cells at 37.67 uM after 48 hrs by microarray hybridization relative to control; assay type: functional, cell-based
MCF-10A [7] = assay: Upregulation of BNIP3 gene in human MCF10A cells at 37.67 uM after 48 hrs by microarray hybridization relative to control; assay type: functional, cell-based
MCF-10A [8] = assay: Upregulation of GADD45A gene in human MCF10A cells at 37.67 uM after 48 hrs by microarray hybridization relative to control; assay type: functional, cell-based
MCF-10A [9] = assay: Upregulation of CARD14 gene in human MCF10A cells at 37.67 uM after 48 hrs by microarray hybridization relative to control; assay type: functional, cell-based
MCF-10A [10] = assay: Upregulation of GADD45B gene in human MCF10A cells at 37.67 uM after 48 hrs by microarray hybridization relative to control; assay type: functional, cell-based
MCF-10A [11] = assay: Upregulation of DNASE1 gene in human MCF10A cells at 37.67 uM after 48 hrs by microarray hybridization relative to control; assay type: functional, cell-based
MCF-10A [12] = assay: Upregulation of NOXA gene in human MCF10A cells at 37.67 uM after 48 hrs by microarray hybridization relative to control; assay type: functional, cell-based
MCF-10A [13] = assay: Downregulation of UNC5C gene in human MCF10A cells at 37.67 uM after 48 hrs by microarray hybridization relative to control; assay type: functional, cell-based
MCF-10A [14] = assay: Downregulation of CARD9 gene in human MCF10A cells at 37.67 uM after 48 hrs by microarray hybridization relative to control; assay type: functional, cell-based
MCF-10A [15] = assay: Downregulation of AVEN gene in human MCF10A cells at 37.67 uM after 48 hrs by microarray hybridization relative to control; assay type: functional, cell-based
MCF-10A [16] = assay: Downregulation of BCL2 gene in human MCF10A cells at 37.67 uM after 48 hrs by microarray hybridization relative to control; assay type: functional, cell-based
MCF-10A [17] = assay: Downregulation of BAG2 gene in human MCF10A cells at 37.67 uM after 48 hrs by microarray hybridization relative to control; assay type: functional, cell-based
MCF-10A [18] = assay: Downregulation of CD14 gene in human MCF10A cells at 37.67 uM after 48 hrs by microarray hybridization relative to control; assay type: functional, cell-based
MCF-10A [19] = assay: Downregulation of E2F1 gene in human MCF10A cells at 37.67 uM after 48 hrs by microarray hybridization relative to control; assay type: functional, cell-based
MCF-10A [20] = assay: Downregulation of […] gene in human MCF10A cells at 37.67 uM after 48 hrs by microarray hybridization relative to control; assay type: functional, cell-based
MCF-10A [21] = assay: Downregulation of TP5313 gene in human MCF10A cells at 37.67 uM after 48 hrs by microarray hybridization relative to control; assay type: functional, cell-based
MCF-10A [22] = assay: Downregulation of FAIM gene in human MCF10A cells at 37.67 uM after 48 hrs by microarray hybridization relative to control; assay type: functional, cell-based
MCF-10A [23] = assay: Downregulation of CCL2 gene in human MCF10A cells at 37.67 uM after 48 hrs by microarray hybridization relative to control; assay type: functional, cell-based
MCF7 [24] = assay: Upregulation of BBC3 gene in human MCF7 cells at 1.09 uM after 48 hrs by quantitative RT-PCR analysis; assay type: functional, cell-based
MCF-10A [25] = assay: Upregulation of BBC3 gene in human MCF10A cells at 37.67 uM after 48 hrs by quantitative RT-PCR analysis; assay type: functional, cell-based
MCF7 [26] = assay: Upregulation of NOXA gene in human MCF7 cells at 1.09 uM after 48 hrs by quantitative RT-PCR analysis; assay type: functional, cell-based
MCF7 [27] = assay: Modulation of p53 gene expression in human MCF7 cells at 1.09 uM after 48 hrs by quantitative RT-PCR analysis; assay type: functional, cell-based
MCF7 [28] = assay: Modulation of Apaf-1 gene expression in human MCF7 cells at 1.09 uM after 48 hrs by quantitative RT-PCR analysis; assay type: functional, cell-based
MCF7 [29] = assay: Downregulation of Bcl2 gene expression in human MCF7 cells at 1.09 uM after 48 hrs by quantitative RT-PCR analysis; assay type: functional, cell-based
MCF7 [30] = assay: Upregulation of BBC3 protein expression in human MCF7 cells at […] after 48 hrs by Western blot analysis relative to control; assay type: functional
MCF-10A [31] = assay: Upregulation of BBC3 protein expression in human MCF10A cells at 37.67 uM after 48 hrs by Western blot analysis relative to control; assay type: functional
[32] = Therapeutic index, ratio of IC50 for human MCF10A cells to IC50 for human MCF7 cells; assay type: cell-based; conditions: MCF10A cells and MCF7 cells, read-out: Ratio IC50

## COC(CN(c1ccccc1CO)S(=O)(=O)c1ccccc1N)n1cc(F)c(=O)[nH]c1=O (racemic)
MCF7 [1]
  fold change (FC): -3.1
MCF7 [2]
  fold change (FC): -3.77
MCF-10A [3]
  Activity: inactive
MCF-10A [4]
  Activity: inactive
MCF-10A [5]
  Activity: inactive
MCF-10A [6]
  Activity: inactive
MCF-10A [7]
  Activity: inactive
MCF-10A [8]
  Activity: inactive
MCF-10A [9]
  Activity: inactive
MCF-10A [10]
  Activity: inactive
MCF-10A [11]
  Activity: inactive
MCF-10A [12]
  Activity: inactive
MCF-10A [13]
  Activity: inactive
MCF-10A [14]
  Activity: inactive
MCF-10A [15]
  Activity: inactive
MCF-10A [16]
  Activity: inactive
MCF-10A [17]
  Activity: inactive
MCF-10A [18]
  Activity: inactive
MCF-10A [19]
  Activity: inactive
MCF-10A [20]
  Activity: inactive
MCF-10A [21]
  Activity: inactive
MCF-10A [22]
  Activity: inactive
MCF-10A [23]
  Activity: inactive
MCF7 [24]
  Activity: Active
MCF-10A [25]
  Activity: inactive
MCF7 [26]
  Activity: Active
MCF7 [27]
  Activity: inactive
MCF7 [28]
  Activity: inactive
MCF7 [29]
  Activity: Active
MCF7 [30]
  fold change (FC): 2.74
MCF-10A [31]
  fold change (FC): 1.13
[32]
  selectivity ratio: 34.5
